Test results taken from patent US20240209028A1, “CNP COMPOUNDS” (priority 2022, published 2024).
Starred links: 1 amine or outer side, 2 acyl side, 3 side chain; linkers in the order of their positions; H or OH if unused. Positions of bridges follow the written chain, without caps; N, C: chain ends. Residues, ends and D or L forms follow the SMILES beside them. *: point of attachment. C18 diacid = O=C(O)CCCCCCCCCCCCCCCCC(=O)*; γGlu = O=C(O)[C@H](CCC(=O)[*:2])N[*:1]; AEEA = NCCOCCOCC(=O)O

These compounds were tested against T1, human natriuretic peptide receptor 2 (hNPR2) (Homo sapiens, UniProt P20594) (assay: In vitro hNPR2 activity assay (cGMP GloSensor reporter, HEK293)). Conditions: potency relative to CNP22 (0065).
T1 construct: expressed in transfected cells; host or cells: HEK293 (ATCC CRL-1573), clone 35, co-transfected with pGloSensor-42F
T1 sequence (P20594 23-1047): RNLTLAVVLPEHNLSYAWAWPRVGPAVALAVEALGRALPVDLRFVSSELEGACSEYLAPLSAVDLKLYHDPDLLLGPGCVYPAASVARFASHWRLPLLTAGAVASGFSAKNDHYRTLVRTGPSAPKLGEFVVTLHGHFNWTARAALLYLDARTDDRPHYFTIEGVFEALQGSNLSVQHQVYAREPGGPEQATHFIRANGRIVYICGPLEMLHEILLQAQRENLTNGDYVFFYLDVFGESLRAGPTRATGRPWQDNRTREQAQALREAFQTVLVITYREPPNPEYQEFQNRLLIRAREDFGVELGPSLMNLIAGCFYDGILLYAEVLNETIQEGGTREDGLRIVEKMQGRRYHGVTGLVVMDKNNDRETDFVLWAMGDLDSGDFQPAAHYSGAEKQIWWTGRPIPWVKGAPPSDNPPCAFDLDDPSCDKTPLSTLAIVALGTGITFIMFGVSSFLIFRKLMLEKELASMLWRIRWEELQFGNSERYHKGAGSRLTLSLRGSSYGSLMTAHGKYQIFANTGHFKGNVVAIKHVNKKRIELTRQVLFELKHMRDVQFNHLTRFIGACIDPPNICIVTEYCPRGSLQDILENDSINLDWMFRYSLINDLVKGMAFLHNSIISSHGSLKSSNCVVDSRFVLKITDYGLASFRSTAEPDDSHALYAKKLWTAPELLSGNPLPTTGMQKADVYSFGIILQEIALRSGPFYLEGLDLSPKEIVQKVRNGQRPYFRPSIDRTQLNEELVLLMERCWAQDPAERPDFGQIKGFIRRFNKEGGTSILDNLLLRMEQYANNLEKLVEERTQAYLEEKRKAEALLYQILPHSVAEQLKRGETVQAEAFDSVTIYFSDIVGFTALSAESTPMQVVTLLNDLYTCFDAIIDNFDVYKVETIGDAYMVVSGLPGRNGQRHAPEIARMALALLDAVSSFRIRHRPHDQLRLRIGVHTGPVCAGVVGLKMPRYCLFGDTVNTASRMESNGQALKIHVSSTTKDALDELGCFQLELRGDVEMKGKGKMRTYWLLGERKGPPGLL
Assay type: cell-based
Outline: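 Potency is the EC50 from a four-parameter logistic fit, also expressed relative to the in-plate CNP22 control (×100), with at least two replicates. Compounds (ten concentrations, […], HSA-free diluent with 1% OVA, 0.01% Tween20) were incubated 30 min at 37 °C on HEK293 cells co-expressing hNPR2 and a GloSensor cGMP luciferase. Luminescence detected with Bright-Glo.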
`CC[C@H](C)[C@@H]1NC(=O)[C@H](CCCNC(=N)N)NC(=O)[C@H](CC(=O)O)NC(=O)[C@H](CC(C)C)NC(=O)[C@@H]2CCCN2C(=O)[C@H](CC(C)C)NC(=O)CNC(=O)[C@H](Cc2ccccc2)NC(=O)[C@@H](NC(=O)CNC(=O)[C@H](Cc2c[nH]cn2)NC(=O)[C@H](CO)NC(=O)CNC(=O)CNC(=O)[C@H](CCCCN)NC(=O)[C@H](CCCCN)NC(=O)[C@H](CCC(N)=O)NC(=O)[C@H](C)NC(=O)CNC(=O)[C@H](CCC(=O)O)NC(=O)[C@H](Cc2ccc(O)cc2)NC(=O)COCCOCCNC(=O)COCCOCCNC(=O)COCCOCCNC(=O)COCCOCCNC(=O)CC[C@H](NC(=O)CCCCCCCCCCCCCCCCC(=O)O)C(=O)O)CSSC[C@@H](C(=O)O)NC(=O)CNC(=O)[C@H](CC(C)C)NC(=O)CNC(=O)[C@H](CO)NC(=O)[C@H](CC(C)C)NC(=O)[C@H](CO)NC(=O)CNC1=O` [compound 1431] ({C18 diacid-γGlu-AEEA-AEEA-AEEA-AEEA}-YEGAQKKGGSHGCFGLPLDRIGSLSGLGC-OH; disulfide 13-29; C-terminus assumed) was tested, and the “hNPR2 0% HSA. [EC50% rel CNP]” value was 14.3%.
For `CC[C@H](C)[C@@H]1NC(=O)[C@H](CCCNC(=N)N)NC(=O)[C@H](CC(=O)O)NC(=O)[C@H](CC(C)C)NC(=O)[C@@H]2CCCN2C(=O)[C@H](CC(C)C)NC(=O)CNC(=O)[C@H](Cc2ccccc2)NC(=O)[C@@H](NC(=O)CNC(=O)[C@H](CCC(N)=O)NC(=O)[C@H](CO)NC(=O)[C@@H](NC(=O)CNC(=O)[C@H](CCCCN)NC(=O)[C@H](CCCCN)NC(=O)[C@H](CCC(N)=O)NC(=O)[C@H](C)NC(=O)CNC(=O)[C@H](CCCCN)NC(=O)[C@H](Cc2ccc(O)cc2)NC(=O)COCCOCCNC(=O)COCCOCCNC(=O)COCCOCCNC(=O)COCCOCCNC(=O)CC[C@H](NC(=O)CC[C@H](NC(=O)CCCCCCCCCCCCCCCCC(=O)O)C(=O)O)C(=O)O)C(C)C)CSSC[C@@H](C(=O)O)NC(=O)CNC(=O)[C@H](CC(C)C)NC(=O)CNC(=O)[C@H](CO)NC(=O)[C@H](CC(C)C)NC(=O)[C@H](CO)NC(=O)CNC1=O` [compound 1436] ({C18 diacid-γGlu-γGlu-AEEA-AEEA-AEEA-AEEA}-YKGAQKKGVSQGCFGLPLDRIGSLSGLGC-OH; disulfide 13-29; C-terminus assumed), the “hNPR2 0% HSA. [EC50% rel CNP]” value was 30.2%.
In the case of `CC[C@H](C)[C@@H]1NC(=O)[C@H](CCCNC(=N)N)NC(=O)[C@H](CC(=O)O)NC(=O)[C@H](CC(C)C)NC(=O)[C@@H]2CCCN2C(=O)[C@H](CC(C)C)NC(=O)CNC(=O)[C@H](Cc2ccccc2)NC(=O)[C@@H](NC(=O)CNC(=O)[C@H](CCC(N)=O)NC(=O)[C@H](CO)NC(=O)[C@@H](NC(=O)CNC(=O)[C@H](CCCCN)NC(=O)[C@H](CCCCN)NC(=O)[C@H](CCC(N)=O)NC(=O)[C@H](C)NC(=O)CNC(=O)[C@H](Cc2c[nH]cn2)NC(=O)[C@H](Cc2ccc(O)cc2)NC(=O)COCCOCCNC(=O)COCCOCCNC(=O)COCCOCCNC(=O)COCCOCCNC(=O)CC[C@H](NC(=O)CC[C@H](NC(=O)CCCCCCCCCCCCCCCCC(=O)O)C(=O)O)C(=O)O)C(C)C)CSSC[C@@H](C(=O)O)NC(=O)CNC(=O)[C@H](CC(C)C)NC(=O)CNC(=O)[C@H](CO)NC(=O)[C@H](CC(C)C)NC(=O)[C@H](CO)NC(=O)CNC1=O` [compound 1437] ({C18 diacid-γGlu-γGlu-AEEA-AEEA-AEEA-AEEA}-YHGAQKKGVSQGCFGLPLDRIGSLSGLGC-OH; disulfide 13-29), the “hNPR2 0% HSA. [EC50% rel CNP]” value is reported as 19.9%.
In the case of `CC[C@H](C)[C@@H]1NC(=O)[C@H](CCCNC(=N)N)NC(=O)[C@H](CC(=O)O)NC(=O)[C@H](CC(C)C)NC(=O)[C@@H]2CCCN2C(=O)[C@H](CC(C)C)NC(=O)CNC(=O)[C@H](Cc2ccccc2)NC(=O)[C@@H](NC(=O)CNC(=O)[C@H](CCCCN)NC(=O)[C@H](CO)NC(=O)[C@H](CC(C)C)NC(=O)CNC(=O)[C@H](CCCCN)NC(=O)[C@H](CCCCN)NC(=O)[C@H](CCC(N)=O)NC(=O)[C@H](C)NC(=O)CNC(=O)[C@H](CCC(=O)O)NC(=O)[C@H](Cc2ccc(O)cc2)NC(=O)[C@H](CCCCN)NC(=O)[C@H](CCCNC(=N)N)NC(=O)[C@H](C)NC(=O)[C@H](CCC(N)=O)NC(=O)[C@@H]2CCCN2C(=O)[C@H](Cc2c[nH]cn2)NC(=O)[C@H](CCC(=O)O)NC(=O)[C@H](CCC(N)=O)NC(=O)CC[C@H](NC(=O)CC[C@H](NC(=O)CC[C@H](NC(=O)CC[C@H](NC(=O)CCCCCCCCCCCCCCCCC(=O)O)C(=O)O)C(=O)O)C(=O)O)C(=O)O)CSSC[C@@H](C(=O)O)NC(=O)CNC(=O)[C@H](CC(C)C)NC(=O)CNC(=O)[C@H](CO)NC(=O)[C@H](CC(C)C)NC(=O)[C@H](CO)NC(=O)CNC1=O` [compound 1448] ({C18 diacid-γGlu-γGlu-γGlu-γGlu}-QEHPQARKYEGAQKKGLSKGCFGLPLDRIGSLSGLGC-OH; disulfide 21-37), the “hNPR2 0% HSA. [EC50% rel CNP]” value is reported as 33.3%.
With `CC[C@H](C)[C@@H]1NC(=O)[C@H](CCCNC(=N)N)NC(=O)[C@H](CC(=O)O)NC(=O)[C@H](CC(C)C)NC(=O)[C@@H]2CCCN2C(=O)[C@H](CC(C)C)NC(=O)CNC(=O)[C@H](Cc2ccccc2)NC(=O)[C@@H](NC(=O)CNC(=O)[C@H](CO)NC(=O)[C@H](CO)NC(=O)[C@@H](NC(=O)CNC(=O)[C@@H](NC(=O)[C@H](Cc2c[nH]cn2)NC(=O)[C@H](CCC(N)=O)NC(=O)[C@H](C)NC(=O)CNC(=O)[C@H](Cc2c[nH]cn2)NC(=O)[C@H](Cc2ccc(O)cc2)NC(=O)[C@H](CCCCN)NC(=O)[C@H](CCCNC(=N)N)NC(=O)[C@H](C)NC(=O)COCCOCCNC(=O)COCCOCCNC(=O)CC[C@H](NC(=O)CC[C@H](NC(=O)CC[C@H](NC(=O)CCCCCCCCCCCCCCCCC(=O)O)C(=O)O)C(=O)O)C(=O)O)[C@@H](C)O)C(C)C)CSSC[C@@H](C(=O)O)NC(=O)CNC(=O)[C@H](CC(C)C)NC(=O)CNC(=O)[C@H](CO)NC(=O)[C@H](CC(C)C)NC(=O)[C@H](CO)NC(=O)CNC1=O` [compound 1449] ({C18 diacid-γGlu-γGlu-γGlu-AEEA-AEEA}-ARKYHGAQHTGVSSGCFGLPLDRIGSLSGLGC-OH; disulfide 16-32; C-terminus assumed) the “hNPR2 0% HSA. [EC50% rel CNP]” value was 110.0%.
With `CC[C@H](C)[C@@H]1NC(=O)[C@H](CCCNC(=N)N)NC(=O)[C@H](CC(=O)O)NC(=O)[C@H](CC(C)C)NC(=O)[C@@H]2CCCN2C(=O)[C@H](CC(C)C)NC(=O)CNC(=O)[C@H](Cc2ccccc2)NC(=O)[C@@H](NC(=O)CNC(=O)[C@H](CO)NC(=O)[C@H](CO)NC(=O)[C@@H](NC(=O)CNC(=O)[C@@H](NC(=O)[C@H](CCCCN)NC(=O)[C@H](CCC(N)=O)NC(=O)[C@H](C)NC(=O)CNC(=O)[C@H](Cc2c[nH]cn2)NC(=O)[C@H](Cc2ccc(O)cc2)NC(=O)[C@H](CCCCN)NC(=O)[C@H](CCCNC(=N)N)NC(=O)[C@H](C)NC(=O)COCCOCCNC(=O)COCCOCCNC(=O)CC[C@H](NC(=O)CC[C@H](NC(=O)CC[C@H](NC(=O)CCCCCCCCCCCCCCCCC(=O)O)C(=O)O)C(=O)O)C(=O)O)[C@@H](C)O)C(C)C)CSSC[C@@H](C(=O)O)NC(=O)CNC(=O)[C@H](CC(C)C)NC(=O)CNC(=O)[C@H](CO)NC(=O)[C@H](CC(C)C)NC(=O)[C@H](CO)NC(=O)CNC1=O` [compound 1450] ({C18 diacid-γGlu-γGlu-γGlu-AEEA-AEEA}-ARKYHGAQKTGVSSGCFGLPLDRIGSLSGLGC-OH; disulfide 16-32) the “hNPR2 0% HSA. [EC50% rel CNP]” value was 84.2%.
In the case of `CC[C@H](C)[C@@H]1NC(=O)[C@H](CCCNC(=N)N)NC(=O)[C@H](CCC(=O)O)NC(=O)[C@H](CC(C)C)NC(=O)[C@@H]2CCCN2C(=O)[C@H](CC(C)C)NC(=O)CNC(=O)[C@H](Cc2ccccc2)NC(=O)[C@@H](NC(=O)CNC(=O)[C@H](CO)NC(=O)[C@H](CO)NC(=O)[C@@H](NC(=O)CNC(=O)[C@H](CCCCN)NC(=O)[C@H](CCCCN)NC(=O)[C@H](CCC(N)=O)NC(=O)[C@H](C)NC(=O)CNC(=O)[C@H](Cc2c[nH]cn2)NC(=O)[C@H](Cc2ccc(O)cc2)NC(=O)[C@H](CCCCN)NC(=O)[C@H](CCCNC(=N)N)NC(=O)[C@H](C)NC(=O)COCCOCCNC(=O)COCCOCCNC(=O)CC[C@H](NC(=O)CC[C@H](NC(=O)CC[C@H](NC(=O)CCCCCCCCCCCCCCCCC(=O)O)C(=O)O)C(=O)O)C(=O)O)C(C)C)CSSC[C@@H](C(=O)O)NC(=O)CNC(=O)[C@H](CC(C)C)NC(=O)CNC(=O)[C@H](CO)NC(=O)[C@H](CC(C)C)NC(=O)[C@H](CO)NC(=O)CNC1=O` [compound 1451] ({C18 diacid-γGlu-γGlu-γGlu-AEEA-AEEA}-ARKYHGAQKKGVSSGCFGLPLERIGSLSGLGC-OH; disulfide 16-32), the “hNPR2 0% HSA. [EC50% rel CNP]” value is reported as 47.5%.
